These results are taken from patent US10414774B2, “Compound useful for altering the levels of bile acids for the treatment of diabetes and cardiometabolc disease” (Merck Sharp & Dohme Corp., priority 2016, dated 2019).

For this test, the target named is T1, Human CYP8B1 (Homo sapiens, UniProt Q9UNU6).
T1 sequence (Q9UNU6 1-501): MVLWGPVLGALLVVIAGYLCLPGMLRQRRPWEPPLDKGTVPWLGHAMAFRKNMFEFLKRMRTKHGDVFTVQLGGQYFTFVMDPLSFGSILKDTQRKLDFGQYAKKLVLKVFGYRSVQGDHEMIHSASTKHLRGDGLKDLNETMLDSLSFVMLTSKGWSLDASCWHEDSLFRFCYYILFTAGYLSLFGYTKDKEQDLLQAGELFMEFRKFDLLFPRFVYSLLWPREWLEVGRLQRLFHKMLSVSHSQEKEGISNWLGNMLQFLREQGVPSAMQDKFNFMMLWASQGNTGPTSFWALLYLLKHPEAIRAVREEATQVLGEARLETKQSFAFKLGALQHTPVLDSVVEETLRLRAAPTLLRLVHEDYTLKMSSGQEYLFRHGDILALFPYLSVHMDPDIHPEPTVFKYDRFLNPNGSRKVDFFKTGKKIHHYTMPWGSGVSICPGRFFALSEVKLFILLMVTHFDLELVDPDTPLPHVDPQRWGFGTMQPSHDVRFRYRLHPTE
In words: Human CYP8B1 Liver Microsome Assay. The conditions noted are these: Human CYP8B1 IC50, human liver microsomes; substrate 7a-hydroxy-4-cholesten-3-one, NADPH; RapidFire MS detection of 7α,12α-dihydroxy-4-cholesten-3-one. (In general: Liver microsomes are vesicles of endoplasmic reticulum, rich in cytochrome P450 enzymes.)

The structures appear in SMILES notation.

By IC50 is commonly meant the concentration needed to halve the response being measured. Read a low IC50 as greater potency. On to `CC[C@@H]1CN(c2c(C#N)cnc3c(F)c(OC)ccc23)CC[C@@H]1C(=O)N1CCn2c(nnc2C(F)(F)F)C1` [Example 74b, 4-[(3S,4S)-3-ethyl-4-{[3-(trifluoromethyl)-5,6-dihydro[1,2,4]triazolo[4,3-a]pyrazin-7(8H)-yl]carbonyl}piperidin-1-yl]-8-fluoro-7-methoxyquinoline-3-carbonitrile], for which the IC50 amounted to 2.1 nM.

Molecule `C[C@@H]1CN(c2c(C#N)cnc3c2CCN(C(=O)OC2(C)CC2)C3)CC[C@@H]1C(=O)N1CCn2c(nnc2C2CC2)C1` [Example 85, 1-methylcyclopropyl 3-cyano-4-((3S,4S)-4-(3-cyclopropyl-5,6,7,8-tetrahydro-[1,2,4]triazolo[4,3-a]pyrazine-7-carbonyl)-3-methylpiperidin-1-yl)-5,6-dihydro-1,7-naphthyridine-7(8H)-carboxylate] returned a half-inhibitory concentration (IC50) of 2 nM.

`N#Cc1cnc2ccc(Cl)cc2c1N1CCC(C(=O)N2CCn3cnnc3C2)CC1` [Example 110, 6-chloro-4-[4-(5,6-dihydro[1,2,4]triazolo[4,3-a]pyrazin-7(8H)-ylcarbonyl)piperidin-1-yl]quinoline-3-carbonitrile] yielded a half-inhibitory concentration (IC50) of 181 nM.

The molecule `COc1ccc2c(N3CC[C@H](C(=O)N4CCn5c(nnc5C(F)(F)F)C4)[C@H](C)C3)c(C#N)cnc2c1C` [Example 19, 7-methoxy-8-methyl-4-[(3S,4S)-3-methyl-4-{[3-(trifluoromethyl)-5,6-dihydro[1,2,4]triazolo[4,3-a]pyrazin-7(8H)-yl]carbonyl}piperidin-1-yl]quinoline-3-carbonitrile] returned an IC50 of 0.2 nM.

Molecule `CCc1nnc2n1CCN(C(=O)C1CCN(c3c(C#N)cnc4ccc(Cl)cc34)CC1)C2` [Example 106, 6-chloro-4-{4-[(3-ethyl-5,6-dihydro[1,2,4]triazolo[4,3-a]pyrazin-7(8H)-yl)carbonyl]piperidin-1-yl}quinoline-3-carbonitrile] showed an IC50 of 8.1 nM.

`C[C@@H]1CN(c2c(C#N)cnc3cc(C(F)(F)F)ccc23)CC[C@@H]1C(=O)N1CCn2c(nnc2C(F)(F)F)C1` [Example 24, 4-((3S,4S)-3-methyl-4-(3-(trifluoromethyl)-5,6,7,8-tetrahydro-[1,2,4]triazolo[4,3-a]pyrazine-7-carbonyl)piperidin-1-yl)-7-(trifluoromethyl)quinoline-3-carbonitrile]: 0.4 nM corresponded to half-maximal inhibition (IC50). This IC50 is about 20-fold lower than that of the molecule before.

In the case of `CCc1ncc2n1CCN(C(=O)C1CCN(c3c(C#N)cnc4ccc(Cl)cc34)CC1)C2` [Example 114, 6-chloro-4-{4-[(3-ethyl-5,6-dihydroimidazo[1,5-a]pyrazin-7(8H)-yl)carbonyl]piperidin-1-yl}quinoline-3-carbonitrile], the IC50 was determined as 1220 nM. Against the preceding molecule, the IC50 is about 3000-fold higher.

`C[C@H]1CN(c2c(C#N)c(C(F)F)nc3ccc(Cl)cc23)CC[C@H]1C(=O)N1CCn2c(nnc2C(F)(F)F)C1` (single isomer, unassigned) [Example 57b] showed an IC50 of 1490 nM. This IC50 and that of the molecule before are within 1.5-fold of each other.

For the molecule `C[C@@H]1CN(c2c(C#N)cnc3c(F)cc(C(F)F)cc23)CC[C@@H]1C(=O)N1CCn2c(nnc2C(F)(F)F)C1` [Example 88, 6-(difluoromethyl)-8-fluoro-4-((3S,4S)-3-methyl-4-(3-(trifluoromethyl)-5,6,7,8-tetrahydro-[1,2,4]triazolo[4,3-a]pyrazine-7-carbonyl)piperidin-1-yl)quinoline-3-carbonitrile], the IC50 stood at 0.7 nM.

Turning to `C[C@@H]1CN(c2c(C#N)cnc3c(Cl)cccc23)CC[C@@H]1C(=O)N1CCn2c(nnc2C(F)(F)F)C1` [Example 14, 8-chloro-4-[(3S,4S)-3-methyl-4-{[3-(trifluoromethyl)-5,6-dihydro[1,2,4]triazolo[4,3-a]pyrazin-7(8H)-yl]carbonyl}piperidin-1-yl]quinoline-3-carbonitrile], the half-maximal inhibitory concentration (IC50) turned out to be 1.7 nM.

On to `COc1ccc2c(N3CC[C@H](C(=O)N4CCn5c(nnc5C(F)(F)F)C4)[C@H](C)C3)c(C#N)c(C)nc2c1` [Example 34, 7-methoxy-2-methyl-4-[(3S,4S)-3-methyl-4-{[3-(trifluoromethyl)-5,6-dihdyro[1,2,4]triazolo[4,3-a]pyrazin-7(8H)-yl]carbonyl}piperidin-1-yl]quinoline-3-carbonitrile], for which the IC50 is 0.89 nM.

Consider `C[C@@H]1CN(c2c(C#N)cnc3c(F)c(Cl)ccc23)CC[C@@H]1C(=O)N1CCn2c(nnc2C(F)(F)F)C1` [Example 1, 7-chloro-8-fluoro-4-[(3S,4S)-3-methyl-4-{[3-(trifluoromethyl)-5,6-dihydro[1,2,4]triazolo[4,3-a]pyrazin-7(8H)-yl]carbonyl}piperidin-1-yl]quinoline-3-carbonitrile], for which the 50% inhibitory concentration (IC50) was found to be 0.47 nM. This IC50 lies about 1.9-fold lower than the previous one.

Regarding `Cc1nc2ccc(Cl)cc2c(N2CC[C@H](C(=O)N3CCc4c(n[nH]c4C(F)(F)F)C3)[C@H](C)C2)c1C#N` [Example 93, 6-chloro-2-methyl-4-[(3S,4S)-3-methyl-4-{[3-(trifluoromethyl)-2,4,5,7-tetrahydro-6H-pyrazolo[3,4-c]pyridin-6-yl]carbonyl}piperidin-1-yl]quinoline-3-carbonitrile], the IC50 worked out at 28 nM.

For `C[C@@H]1CN(c2c(C#N)c(Cl)nc3ccc(Cl)cc23)CC[C@@H]1C(=O)N1CCn2c(nnc2C(F)(F)F)C1` [Example 56, 2,6-dichloro-4-[(3S,4S)-3-methyl-4-{[3-(trifluoromethyl)-5,6-dihydro[1,2,4]triazolo[4,3-a]pyrazin-7(8H)-yl]carbonyl}piperidin-1-yl]quinoline-3-carbonitrile], half-maximal inhibition (IC50) required 1.5 nM.

Molecule `COc1ccc2c(N3CCC(C(=O)N4CCn5c(C)nnc5C4)C(C)C3)c(C#N)cnc2c1` (stereo not shown) [Example 84, 7-methoxy-4-{3-methyl-4-[(3-methyl-5,6-dihydro[1,2,4]triazolo[4,3-a]pyrazin-7(8H)-yl)carbonyl]piperidin-1-yl}quinoline-3-carbonitrile] showed a concentration for half-maximal inhibition (IC50) of 3.3 nM.

Turning to `COc1ccc2c(N3CC[C@H](C(=O)N4CCn5c(nnc5C(F)F)C4)[C@H](C)C3)c(C#N)cnc2c1` [Example 70, 4-[(3S,4S)-4-{[3-(difluoromethyl)-5,6-dihydro[1,2,4]triazolo[4,3-a]pyrazin-7(8H)-yl]carbonyl}-3-methylpiperidin-1-yl]-7-methoxyquinoline-3-carbonitrile], the concentration for half-maximal inhibition (IC50) worked out at 0.88 nM.

In turn, `CC1CN(c2c(C#N)cnc3c(C(F)F)cc(Cl)cc23)CCC1C(=O)N1CCn2c(nnc2C(F)(F)F)C1` (stereo not shown) [Example 58] yielded an IC50 of 4.8 nM.

`N#Cc1cnc2cc(C(F)(F)F)ccc2c1N1CCC(C(=O)N2CCn3c(nnc3C(F)(F)F)C2)CC1` [Example 43, 7-(trifluoromethyl)-4-(4-{[3-(trifluoromethyl)-5,6-dihydro[1,2,4]triazolo[4,3-a]pyrazin-7(8H)-yl]carbonyl}piperidin-1-yl)quinoline-3-carbonitrile]: the half-maximal inhibitory concentration (IC50) is 6.3 nM.

Turning to `C[C@@H]1CN(c2c(C#N)cnc3cc(O)ccc23)CC[C@@H]1C(=O)N1CCn2c(nnc2C(F)(F)F)C1` [Example 5, 7-hydroxy-4-[(3S,4S)-3-methyl-4-{[3-(trifluoromethyl)-5,6-dihydro[1,2,4]triazolo[4,3-a]pyrazin-7(8H)-yl]carbonyl}piperidin-1-yl]quinoline-3-carbonitrile], the IC50 amounted to 1.4 nM. This IC50 is about 4.5-fold lower than that of the molecule before.

In the case of `COc1ccc2c(N3CC[C@H](C(=O)N4CCn5c(nnc5C(F)(F)F)C4)[C@H](C)C3)c(C#N)cnc2c1F` [Example 2, 8-fluoro-7-methoxy-4-[(3S,4S)-3-methyl-4-{[3-(trifluoromethyl)-5,6-dihydro[1,2,4]triazolo[4,3-a]pyrazin-7(8H)-yl]carbonyl}piperidin-1-yl]quinoline-3-carbonitrile], half-maximal inhibition (IC50) was put at 0.96 nM. The IC50 values of the last two molecules are within 1.5-fold of each other.

Consider `C[C@@H]1CN(c2c(C#N)cnc3c(F)c(Cl)c(F)cc23)CC[C@@H]1C(=O)N1CCn2c(nnc2C(F)(F)F)C1` [Example 15, 7-chloro-6,8-difluoro-4-[(3S,4S)-3-methyl-4-{[3-(trifluoromethyl)-5,6-dihdyro[1,2,4]triazolo[4,3-a]pyrazin-7(8H)-yl]carobnyl}piperidin-1-yl]quinoline-3-carbonitrile], for which the midpoint of inhibition, the IC50, lay at 1 nM.

In turn, `N#Cc1cnc2ccc(Cl)cc2c1N1CCC(C(=O)N2CCn3cncc3C2)CC1` [Example 105, 6-chloro-4-[4-(5,6-dihydroimidazo[1,5-a]pyrazin-7(8H)-ylcarbonyl)piperidin-1-yl]quinoline-3-carbonitrile] showed a 50% inhibitory concentration (IC50) of 878 nM.

In the case of `COc1ccc2ncc(C#N)c(N3CC[C@H](C(=O)N4CCn5c(nnc5C(F)(F)F)C4)[C@H](C)C3)c2c1` [Example 9, 6-methoxy-4-[(3S,4S)-3-methyl-4-{[3-(trifluoromethyl)-5,6-dihydro[1,2,4]triazolo[4,3-a]pyrazin-7(8H)-yl]carbonyl}piperidin-1-yl]quinoline-3-carbonitrile], the IC50 was determined as 0.51 nM.

Molecule `COc1cc2ncc(C#N)c(N3CC[C@H](C(=O)N4CCn5c(nnc5C(F)(F)F)C4)[C@H](C)C3)c2cc1Br` [Example 20, 6-bromo-7-methoxy-4-[(3S,4S)-3-methyl-4-{[3-(trifluoromethyl)-5,6-dihydro[1,2,4]triazolo[4,3-a]pyrazin-7(8H)-yl]carbonyl}piperidin-1-yl]quinoline-3-carbonitrile] came in with a 50% inhibitory concentration (IC50) of 0.24 nM.

`CC1(C)CN(C(=O)C2CCN(c3c(C#N)cnc4ccc(Cl)cc34)CC2)Cc2nnc(C(F)(F)F)n21` [Example 109, 6-chloro-4-(4-{[5,5-dimethyl-3-(trifluoromethyl)-5,6-dihydro[1,2,4]triazolo[4,3-a]pyrazin-7(8H)-yl]carbonyl}piperidin-1-yl)quinoline-3-carbonitrile] yielded a half-maximal inhibitory concentration (IC50) of 375 nM.
